The source of these data is patent publication US6399580B1, “Methods and compositions for stimulating tissue growth and epithelial moisturization” (The Regents of the University of California, priority 1994, dated 2002).

Several values for one entry are separate records, joined by “and”; a condition that tells them apart may be missing. Equal values may be shown once.

One assay deals with murine epidermis. Kind of assay: Epidermal DNA synthesis, [3H]-thymidine incorporation in vivo. Set-up: species or system mouse. As for the experimental part: To assess the effects of a topical β-glucocerebrosidase inhibitor, conduritol-B-epoxide (CBE) in epidermal DNA synthesis two slightly different dosage protocols have been employed. In all cases, mice were treated topically with 20 μl to 40 μl of 250 nmol/μl CBE bid for 2-5 days on the right flank. On the last day, the mice were injected intraperitoneally with ^3H-thymidine (1 μCi/G body weight) diluted 1:10 in 100-200 μl isotonic NaCl. After one hour the mice were sacrificed. Whole skin was excised and subcutaneous fascia and fat were removed by scraped. Skin samples were placed dermis side downward onto 10 mM EDTA in phosphate buffered saline (PBS-CMF; pH 7.4) and incubated at 37° C. for 40 min. The skin was blotted dry with a tissue and epidermis removed by scraping with a surgical blade. The epidermis was minced into small pieces and placed in microcentrifuge vials. Samples were immediately snap frozen and stored in liquid nitrogen until immediately prior to preparation of the epidermal homogenates. 300 μl of 10 mM EDTA in PBS-CMF (pH 7.4) was added to all samples which then underwent tissue homogenization using Polytron (15 sec, ×2 on ice. Polytron tip was rinsed between each homogenization with 400 μl 10 mM EDTA in PBS-CMF. Rinses were combined with same original samples. Samples were sonicated twice for 10 sec on ice. 100 μl of 20% TCA was added and left for 10 min at 4° C. Samples were centrifuged at 2000×g at 4° C. for 5 min. The supernatant was discarded. 500 μl of 5% TCA was added and the samples were centrifuged at 2000×g at 4° C. for 5 min. The supernatant was discarded and this step was repeated again. The precipitate was resuspended in 1ml of 1N NaOH and vortexed. 400 μl or NaOH plus 400 μl of 1N HCl with 8ml Ecolume was used as a background blank. Vials were counted the following day.
We next determined whether the topical administration of structurally similar but less efficient β-glucosidase inhibitors would induce epidermal hyperproliferation. Animals were treated topically twice daily with either Conduritol-B-epoxide, Conduritol B (CB), or deoxynojirimycin (dNJM), each at 40 μl of 250 nmol/μl twice daily, as described in Example 10. After 24 hours, [^3H]-thymidine was injected intraperitoneally and incorporation of thymidine into DNA was determined (FIG. 26 A&B). […] This reduced activity is a result of the relative availability of these inhibitors to in vivo tissues.
Animals were treated as described in Example 10.
We next determined whether occlusion with a vapor-impermeable membrane would enhance the effects of a β-glucocerebrosidase inhibitor on epidermal DNA synthesis. […] After 24 hrs animals were injected with [^3H]-thymidine, and incorporation into DNA was determined (Proksch, et. al., J. Clin. Invest. 87:1668-1673, 1991).
Background: Incorporation of labelled thymidine or its analogues reports DNA synthesis.

Assay [1] concerns cultured human keratinocytes. Kind of assay: [3H]-thymidine incorporation and DNA content in cultured human keratinocytes. Format: cell-based. The settings on record: for DNA content / thymidine incorporation: 24 hours of treatment, Cer 5 or 10 μM, FIG. 9. As for the experimental part:
To determine the ability of exogenous glucosylceramides (GlcCER) to stimulate epidermal proliferation, we applied various concentrations of GlcCER to cultural human keratinocytes (third passage). Keratinocytes were isolated from human neonatal foreskins by a modification of the method of Pittelkow, M. R. and Scott, R. E. ( (1986) Proc. Mayo Clin. 61:771-777) Cells were added to 100 mm plastic Petri dishes at a density of 1 to 2×10^4 cells/cm^2, and grown initially in 10mls of Keratinocyte Growth Medium (KGM) (Clonetics, San Diego, Calif.) with 0.07 mM calcium. The cultures were maintained at 35° C. under 5% CO2 in air, with medium changes performed three times weekly. After the cells reached 70%-80% confluence, they were switched to KGM medium containing 1.2 mM calcium, and harvested at one week post-confluence. GlcCER was added for the last 24 hours of culture and ^3H-thymidine (1 μCi/ml) was added one-to-three hours prior to harvesting of cells for measurement of DNA synthesis and DNA content. (Proksch, E., et al., J. Clin. Invest. 87:1668-1673 (1991).
Using the method described in Example 5, incorporation of [^3H]-thymidine and total DNA content were measured in cultured human keratinocytes (CHK) grown in serum-free keratinocyte growth medium (KGM) supplemented with 0.07 mM .calcium. Cultured cell were further supplemented as indicated, with ceramide (Cer; 5 or 10 μM), glucosylceramide (GlcCER; 1.25 or 2.5 μM), or a combination of ceramide and glucosylceramide (10 and 1.25 μM, respectively).
(§1) CHK cells were grown in serum-free KGM supplemented both with 0.07 mM calcium and 10 μM ceramide (CER). Increasing concentrations of glucosylceramide were added (2.5 to 10 μM), and both [^3H]-thymidine (1 μCi/ml) and [^14C]-leucine (1 μCi/ml) incorporation assays were performed.
CHK cells were grown (as in Example 6)in serum-free KGM (0.07 mM calcium) and supplemented with increasing concentrations of ceramide (CER) alone (dark bars), glucosylceramide (GlcCer) alone (back row), or the combination of ceramide (10 μM) with increasing glucosylceramide (front row). […] Glucosylceramide alone again stimulated thymidine incorporation (>20%) at low concentrations (1.25 and 2.5 μM).
CHK cells were grown (as in Example 6) in serum-free KGM ([…]) supplemented with glucosylceramide (GlcCER) alone, or in combination with the β-glucocerebrosidase-inhibitor, CBE (3 or 10 μM) (FIG. 12). Incorporation of [^3H]-thymidine was measured at 24 hours following supplementation, and values are reported as percent of unsupplemented controls (mean ±S.D.; n>6). […] A low CBE concentration (3 μM) was ineffective.

Assay [2] deals with acetone treated skin sites. The assay can be described thus: Barrier recovery of acetone treated skin sites. Format: in vivo, mouse. Particulars: MUX 0.5 or 1.0 %(wt:vol) topical.
The next assay deals with CHK cells. Kind of assay: [14C]-leucine incorporation in CHK cells. Particulars: GlcCER 2.5 and 5.0 μM with 10 μM ceramide; FIG. 10. In kind it is cell-based, human. As for the experimental part: as §1
[3] abbreviates: topical 40 μl of 250 nmol/μl twice daily, after 24 hours.
[4] abbreviates: direct application of lipid alone, treated as in Example 10, FIG. 26B.
The mark [5] stands for this setting: GlcCER 1.25 μM, 24 hours, NHK cells, n=6±S.E.

Consider `OC[C@H]1NC[C@H](O)[C@@H](O)[C@@H]1O` [dNJM, deoxynojirimycin], for which, in the assay with murine epidermis (setting [3]), the “epidermal DNA synthesis ([3H]-thymidine incorporation)” value was “Neither CB or dNJM at this concentration induced an increase in DNA synthesis”.
Turning to ceramide, in assay [1] (GlcCER 1.25 μM), the DNA content entry was “corresponding decrease in DNA content” and the thymidine incorporation result was “inhibited thymidine incorporation”. Further, in assay [1] (ceramide alone 10 μM, FIG. 11), the “[3H]-thymidine incorporation, of control” value is given as 35 % of control and the “inhibition of [3H]-thymidine incorporation” value is “approximately 65%”. In the assay on murine epidermis (setting [4]), the “epidermal DNA synthesis ([3H]-thymidine incorporation)” value is “Neither GalCER nor ceramide (CER) alone at this concentration (c.f. structures in FIGS. 4 and 6) induced an increase”.
For the compound galactosylceramide [GalCER], in the assay on murine epidermis (setting [4]), the “epidermal DNA synthesis ([3H]-thymidine incorporation)” value is “Neither GalCER nor ceramide (CER) alone at this concentration (c.f. structures in FIGS. 4 and 6) induced an increase”.
Take `Cc1cc(=O)oc2cc(O[C@@H]3OC[C@@H](O)[C@H](O)[C@H]3O)ccc12` [MUX, 4-methylumbelliferyl xyloside]: the barrier-disrupting effect result in assay [2] is “comparable to the two conduritol is compounds (BrCBE and CBE)”. For the same compound, in assay [2] (at 2, 4 and 6 hours), the barrier recovery result is listed as “delayed barrier recovery”.
In the case of glucosylceramide [GlcCER], in assay [1] (5 μM), the “keratinocyte proliferation, further increase” value is listed as “No further increase”. In assay [1] (GlcCER 1.25 μM), the DNA content result is recorded as “increased” and the thymidine incorporation result is on record as “increased”. The “thymidine incorporation, increase over ceramide alone” value in assay [1] (GlcCER 1.25 μM co-administered with ceramide 10 μM, 24 hours) is “approximately 2 fold”. In assay [1] (setting [5]), the “DNA Content (% of Control)” value is 124 ± 2 % of Control and 111 ± 6 % of Control; the “^3H]-Thym. Incorporation (% of control)” value is 118 ± 0.5 % of control and 117 ± 2.0 % of control. Besides, the “override of the ceramide effect on thymidine incorporation” value in assay [1] (GlcCER 10 μM with 10 μM ceramide) was “did not override the ceramide effect”. Further, in assay [1] (GlcCER 2.5 and 5.0 μM with 10 μM ceramide, FIG. 10), the “thymidine incorporation relative to ceramide-containing control” value is listed as “stimulated”. Also, the “concentration of maximum effect on keratinocyte proliferation” value in assay [1] (cultured human keratinocytes, 24 hours) was found to be 1.25 µM. In addition, the “inhibitory effect of ceramide on thymidine incorporation” value in assay [1] (glucosylceramide 1.25 μM coadministered with ceramide 10 μM) is on record as “reversed”. In addition, the “stimulation of thymidine incorporation” value in assay [1] (glucosylceramide alone, 1.25 and 2.5 μM) was above 20%. For the same compound, the proliferation rates entry in assay [1] (higher concentrations of GlcCER (above 1.25 and 2.5 μM)) is “decreased”. Further, in the assay on CHK cells, the leucine incorporation entry is “not altered”. Further, the “epidermal DNA synthesis, combination of GlcCER with CBE” value in the assay with murine epidermis (FIG. 26B) is listed as “additive effect”. The “epidermal DNA synthesis ([3H]-thymidine incorporation)” value in the assay with murine epidermis (setting [4]) was “significant increase”.
With `O[C@H]1[C@H](O)[C@@H](O)C=C[C@@H]1O` [CB, Conduritol B], in the assay on murine epidermis (setting [3]), the “epidermal DNA synthesis ([3H]-thymidine incorporation)” value is “Neither CB or dNJM at this concentration induced an increase in DNA synthesis”.
